Molecular target: T1, human Nav1.7 (Homo sapiens, UniProt Q15858)
T1 construct: expressed in transfected cells
Experiment: Assessment of Nav1.7 activity on PatchXpress (voltage dependence / slow inactivation parameters)
Assay type: cell-based
Settings: compound at 10 μM, relative to 0.2% DMSO vehicle control; for hNav1.7: Reduction in current at 20 mV (normalized data) Delta Ratio: before/after 30 sec conditioning pulse at 20 mV; for hNav1.7: Shift in voltage dependence of inactivation (mV) Delta Vhalf: PatchXpress
In short: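 HEK293F cells stably co-expressing hNav1.7 and β1 were recorded by automated patch clamp in TEA-based external solution (50 mM NaCl, pH 7.4) with CsF internal solution (pH 7.2). A variable conditioning prepulse inactivated channels, followed by a brief hyperpolarizing step and a depolarizing test pulse. Compounds at 10 μM were compared with 0.2% DMSO vehicle across four parameters.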

T1 sequence (Q15858 whole entry): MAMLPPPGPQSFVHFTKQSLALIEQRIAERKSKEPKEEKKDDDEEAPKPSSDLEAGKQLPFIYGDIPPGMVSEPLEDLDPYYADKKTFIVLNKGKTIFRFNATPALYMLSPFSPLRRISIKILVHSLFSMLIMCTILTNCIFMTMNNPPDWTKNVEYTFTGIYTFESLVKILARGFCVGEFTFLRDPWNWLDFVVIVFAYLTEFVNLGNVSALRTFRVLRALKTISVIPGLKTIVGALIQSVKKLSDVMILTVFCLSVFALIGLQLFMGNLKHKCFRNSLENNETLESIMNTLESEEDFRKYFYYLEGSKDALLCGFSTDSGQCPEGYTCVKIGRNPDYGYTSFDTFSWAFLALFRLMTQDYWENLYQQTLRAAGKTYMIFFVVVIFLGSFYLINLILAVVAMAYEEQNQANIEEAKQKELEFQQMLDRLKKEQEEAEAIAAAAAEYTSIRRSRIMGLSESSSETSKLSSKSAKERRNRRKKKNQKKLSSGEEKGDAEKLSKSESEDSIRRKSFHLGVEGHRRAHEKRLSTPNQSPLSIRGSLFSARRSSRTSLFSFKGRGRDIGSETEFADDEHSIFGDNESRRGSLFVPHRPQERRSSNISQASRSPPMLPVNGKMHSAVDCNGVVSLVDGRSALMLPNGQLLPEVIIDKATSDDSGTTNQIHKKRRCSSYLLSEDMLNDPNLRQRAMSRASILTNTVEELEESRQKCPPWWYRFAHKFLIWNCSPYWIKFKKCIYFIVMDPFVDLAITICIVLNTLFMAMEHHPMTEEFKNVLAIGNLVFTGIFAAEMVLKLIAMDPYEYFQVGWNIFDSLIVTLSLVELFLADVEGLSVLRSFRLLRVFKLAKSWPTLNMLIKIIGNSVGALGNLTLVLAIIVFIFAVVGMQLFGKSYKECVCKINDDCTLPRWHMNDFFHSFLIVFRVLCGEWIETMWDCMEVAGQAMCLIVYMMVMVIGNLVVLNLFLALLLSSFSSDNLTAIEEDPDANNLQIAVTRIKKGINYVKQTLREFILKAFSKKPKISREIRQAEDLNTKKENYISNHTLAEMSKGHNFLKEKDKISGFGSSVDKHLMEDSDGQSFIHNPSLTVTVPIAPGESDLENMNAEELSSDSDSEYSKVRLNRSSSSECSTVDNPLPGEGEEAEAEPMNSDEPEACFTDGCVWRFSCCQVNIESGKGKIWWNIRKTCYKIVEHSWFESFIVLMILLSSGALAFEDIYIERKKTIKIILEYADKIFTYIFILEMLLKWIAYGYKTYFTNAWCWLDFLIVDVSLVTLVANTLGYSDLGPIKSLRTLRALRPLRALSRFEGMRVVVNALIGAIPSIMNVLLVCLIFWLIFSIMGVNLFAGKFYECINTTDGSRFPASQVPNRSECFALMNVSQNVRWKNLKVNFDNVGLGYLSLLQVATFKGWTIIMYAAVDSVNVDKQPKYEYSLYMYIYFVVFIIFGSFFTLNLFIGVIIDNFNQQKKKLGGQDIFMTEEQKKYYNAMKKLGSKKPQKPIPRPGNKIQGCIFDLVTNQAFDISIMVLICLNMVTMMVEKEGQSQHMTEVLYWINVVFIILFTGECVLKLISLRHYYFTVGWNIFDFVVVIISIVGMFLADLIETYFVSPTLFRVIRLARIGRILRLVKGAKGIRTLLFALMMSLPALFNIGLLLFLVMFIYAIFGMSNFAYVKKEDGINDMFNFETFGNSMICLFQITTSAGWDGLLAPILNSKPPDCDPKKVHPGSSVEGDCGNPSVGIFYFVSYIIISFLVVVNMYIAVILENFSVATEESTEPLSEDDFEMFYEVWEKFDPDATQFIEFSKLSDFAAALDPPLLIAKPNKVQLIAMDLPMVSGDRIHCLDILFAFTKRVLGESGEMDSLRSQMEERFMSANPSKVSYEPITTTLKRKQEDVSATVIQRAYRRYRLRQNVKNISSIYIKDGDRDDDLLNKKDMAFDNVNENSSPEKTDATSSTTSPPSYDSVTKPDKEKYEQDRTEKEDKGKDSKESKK
T1 sequence (Q07699 19-218 partner): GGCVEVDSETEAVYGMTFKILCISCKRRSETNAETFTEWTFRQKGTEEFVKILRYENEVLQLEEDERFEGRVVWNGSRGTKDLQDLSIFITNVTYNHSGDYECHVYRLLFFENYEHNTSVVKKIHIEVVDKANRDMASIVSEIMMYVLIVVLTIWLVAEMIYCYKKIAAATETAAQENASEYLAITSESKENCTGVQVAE

Row | hNav1.7: Reduction in current at 20 mV (normalized data) Delta Ratio | hNav1.7: Voltage dependence of activation (mV) VDEP | hNav1.7: Voltage dependence of fast inactivation (mV) VDEP | hNav1.7: Shift in voltage dependence of inactivation (mV) Delta Vhalf | SMILES
1 | −0.01 | −10.6 mV | −4.4 mV | −3.6 mV | O=C(Cc1nc2cc(F)cc(F)c2[nH]1)NC1CCNCC1 [Compound 89, 2-(4,6-difluoro-1H-benzo[d]imidazol-2-yl)-N-(piperidin-4-yl)acetamide]
2 | −0.16 | −8.1 mV | −6.2 mV | −3.5 mV | CC(C)(CN1CCNCC1=O)c1nc2cc(C(F)(F)F)cc(C(F)(F)F)c2[nH]1 [Compound 65, 1-(2-(4,6-bis(trifluoromethyl)-1H-benzo[d]imidazol-2-yl)-2-methylpropyl)piperazin-2-one]
3 | −0.03 | −6.30 mV | −5.10 mV | −2.30 mV | Cc1cccc(C)c1OCC(C)NC(=O)CC(=O)NC1CCNCC1 (centres unmarked) [Compound 34, N1-(1-(2,6-dimethylphenoxy)propan-2-yl)-N3-(piperidin-4-yl)malonamide]
4 | −0.24 | −8.10 mV | −6.60 mV | −21.40 mV | CC[C@H](C)[C@H](N)C(=O)NCCOc1cc(C(F)(F)F)cc(C(F)(F)F)c1 [Compound 7, (2S,3S)-2-amino-N-(2-(3,5-bis(trifluoromethyl)phenoxy)ethyl)-3-methylpentanamide]
5 | −0.08 | −7.40 mV | −3.10 mV | −4.90 mV | NCC[C@@H]1Nc2c(cc(C(F)(F)F)cc2C(F)(F)F)NC1=O [Compound 39, (S)-3-(2-aminoethyl)-5,7-bis(trifluoromethyl)-3,4-dihydroquinoxalin-2(1H)-one]
6 | −0.06 | −7.40 mV | −4.40 mV | −3.00 mV | Cc1cccc(C)c1OCC(C)NC(=O)CN1CCNCC1=O (centres unmarked) [Compound 35, N-(1-(2,6-dimethylphenoxy)propan-2-yl)-2-(2-oxopiperazin-1-yl)acetamide]
7 | −0.07 | −3.3 mV | −7.3 mV | −6.7 mV | CC(C)(C)OC(=O)N[C@H](Cc1cccc(C(F)(F)F)c1)C(=O)NCc1nc2ccc(Br)cc2[nH]1 [Compound 72, tert-butyl (R)-(1-(((6-bromo-1H-benzo[d]imidazol-2-yl)methyl)amino)-1-oxo-3-(3-(trifluoromethyl)phenyl)propan-2-yl)carbamate]
8 | −0.17 | −5.90 mV | −4.00 mV | −23.80 mV | CN[C@H](CC(C)C)C(=O)NCCOc1cc(C(F)(F)F)cc(C(F)(F)F)c1 [Compound 13, (R)-N-(2-(3,5-bis(trifluoromethyl)phenoxy)ethyl)-4-methyl-2-(methylamino)pentanamide]
9 | −0.07 | −3.7 mV | −8.8 mV | −7.4 mV | N[C@H](Cc1cccc(C(F)(F)F)c1)C(=O)NCc1nc2ccc(Br)cc2[nH]1 [Compound 74, (R)-2-amino-N-((6-bromo-1H-benzo[d]imidazol-2-yl)methyl)-3-(3-(trifluoromethyl)phenyl)propanamide]
10 | −0.09 | −2.60 mV | −3.90 mV | −11.90 mV | CC(C)C[C@H](N)CC(=O)NCCOc1cc(F)cc(C(F)(F)F)c1 [Compound 18, (S)-3-amino-N-(2-(3-fluoro-5-(trifluoromethyl)phenoxy)ethyl)-5-methylhexanamide]
11 | −0.29 | −10.00 mV | −8.20 mV | −32.20 mV | Cc1cccc(C)c1OCC(C)NC(=O)[C@H](N)CC(C)C (stereo partly drawn) [Compound 2, (2R)-2-amino-N-(1-(2,6-dimethylphenoxy)propan-2-yl)-4-methylpentanamide]
12 | −0.23 | −7.80 mV | −6.80 mV | −16.40 mV | N[C@H]1CCCC[C@H]1C(=O)NCCOc1cc(C(F)(F)F)cc(C(F)(F)F)c1 [Compound 8, (1R,2S)-2-amino-N-(2-(3,5-bis(trifluoromethyl)phenoxy)ethyl) cyclohexane-1-carboxamide]
13 | −0.02 | −5.6 mV | −8.7 mV | −2.5 mV | C[C@@H](NC(=O)[C@@H]1CCCN1)c1ccc(OCC(F)(F)F)cn1 [Compound 82, (S)-N-((R)-1-(5-(2,2,2-trifluoroethoxy)pyridin-2-yl)ethyl)pyrrolidine-2-carboxamide]
14 | −0.26 | −8.6 mV | −6.2 mV | −15.1 mV | N[C@H](Cc1cccc(F)c1)c1nc2cc(C(F)(F)F)cc(C(F)(F)F)c2[nH]1 [Compound 55, (R)-1-(4,6-bis(trifluoromethyl)-1H-benzo[d]imidazol-2-yl)-2-(3-fluorophenyl)ethan-1-amine]
15 | 0.01 | −7.1 mV | −3.9 mV | −2.2 mV | COC[C@@H]1C(=O)N(Cc2cc(C(F)(F)F)cc(C(F)(F)F)c2)CCN1C(C)=O [Compound 92, (R)-4-acetyl-1-(3,5-bis(trifluoromethyl)benzyl)-3-(methoxymethyl)piperazin-2-one]
16 | 0.03 | −3.4 mV | −3.2 mV | 0.3 mV | O[C@@H]1CN[C@H](c2nc3cc(C(F)(F)F)cc(C(F)(F)F)c3[nH]2)C1 [Compound 85, (3S,5S)-5-(5,7-bis(trifluoromethyl)-1H-benzo[d]imidazol-2-yl)pyrrolidin-3-ol]
17 | −0.16 | −6.00 mV | −4.90 mV | −20.60 mV | Cc1cccc(C)c1OCC(C)NC(=O)[C@@H]1CCCN1 (stereo partly drawn) [Compound 15, (2S)-N-(1-(2,6-dimethylphenoxy)propan-2-yl)pyrrolidine-2-carboxamide]

— patent US20170107203A1, “HETEROCYCLIC INHIBITORS OF THE SODIUM CHANNEL” (EPIRUS BIOPHARMACEUTICALS, INC., priority 2014, published 2017)
